From US20170239249A1, “QUINAZOLINE-BASED KINASE INHIBITORS” (Bristol-Myers Squibb Company, priority 2014, published 2017)

Target: AAK1 (full length human) (Homo sapiens, UniProt Q2M2I8)
Assay: HEK281 Cell-Based Assay (phospho-mu2 Western blot in HEK293F cells transfected with AAK1 and AP2M1)
Conditions: IC50 (nM), functional potency; inhibition of mu2 phosphorylation in HEK293F cells, 3 hours incubation, 5 concentrations

AAK1 (full length human), sequence (Q2M2I8 1-863 isoform Q2M2I8-2): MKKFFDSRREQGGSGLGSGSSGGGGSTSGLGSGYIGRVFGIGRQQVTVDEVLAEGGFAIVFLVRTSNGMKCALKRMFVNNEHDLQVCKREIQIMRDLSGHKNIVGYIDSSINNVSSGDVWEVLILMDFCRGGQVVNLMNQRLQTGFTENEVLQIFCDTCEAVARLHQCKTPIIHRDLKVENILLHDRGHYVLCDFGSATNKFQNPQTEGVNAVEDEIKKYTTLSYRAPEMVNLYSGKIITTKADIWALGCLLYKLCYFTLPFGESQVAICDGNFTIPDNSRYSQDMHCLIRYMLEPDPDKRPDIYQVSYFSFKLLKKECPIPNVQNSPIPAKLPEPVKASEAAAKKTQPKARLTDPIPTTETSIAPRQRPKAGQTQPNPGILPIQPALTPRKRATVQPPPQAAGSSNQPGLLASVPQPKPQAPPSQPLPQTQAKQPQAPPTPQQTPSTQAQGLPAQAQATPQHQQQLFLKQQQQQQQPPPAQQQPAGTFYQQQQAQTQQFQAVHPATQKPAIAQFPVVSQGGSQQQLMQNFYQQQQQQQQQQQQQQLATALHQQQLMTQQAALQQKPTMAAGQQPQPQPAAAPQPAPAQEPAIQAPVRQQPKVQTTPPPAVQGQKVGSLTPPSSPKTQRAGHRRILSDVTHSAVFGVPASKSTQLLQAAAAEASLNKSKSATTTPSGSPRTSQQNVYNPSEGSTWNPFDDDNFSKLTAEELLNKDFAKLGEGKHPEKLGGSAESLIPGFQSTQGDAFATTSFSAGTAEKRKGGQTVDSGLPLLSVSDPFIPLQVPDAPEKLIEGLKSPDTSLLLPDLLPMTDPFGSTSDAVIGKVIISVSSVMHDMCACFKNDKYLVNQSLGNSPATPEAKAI

Structure (SMILES)	IC50 [nM]
CC(C)CCc1nc(C2CC2)c2cc(-c3ccncc3)ccc2n1 [Example 47, 4-Cyclopropyl-2-isopentyl-6-(pyridin-4-yl)quinazoline]	1340
CC(C)CCc1nc(NCCN(C)C)c2cc(-c3ccncc3)ccc2n1 [Example 48, N-(2-Isopentyl-6-(pyridin-4-yl)quinazolin-4-yl)-N^2,N^2-dimethylethane-1,2-diamine]	1190
CC(C)CCc1nc2ccc(-c3ccncc3)cc2c(=O)[nH]1 [Example 49, 2-Isopentyl-6-(pyridin-4-yl)quinazolin-4(3H)-one]	54
CC(C)CCc1nc(NCCO)c2cc(-c3ccncc3)ccc2n1 [Example 50, 2-(2-Isopentyl-6-(pyridin-4-yl)quinazolin-4-ylamino)ethanol]	301
CC(C)CCc1nc2ccc(-c3cn[nH]c3)cc2c(=O)[nH]1 [Example 51, 2-Isopentyl-6-(1H-pyrazol-4-yl)quinazolin-4(3H)-one]	22
CCc1nc(CCC(C)C)nc2cc(OC)c(-c3cnco3)cc12 [Example 52, 5-(4-Ethyl-2-isopentyl-7-methoxyquinazolin-6-yl)oxazole]	1270
CC(C)CCc1nc(C(N)=O)c2cc(-c3ccncc3)ccc2n1 [Example 53, 2-Isopentyl-6-(pyridin-4-yl)quinazoline-4-carboxamide]	354
CCOc1cc2nc(CCC(C)C)nc(CC)c2cc1-c1cnco1 [Example 54, 5-(7-Ethoxy-4-ethyl-2-isopentylquinazolin-6-yl) oxazole]	2590
COc1nc(C(N)CC(C)C)nc2ccc(-c3ccncc3)cc12 (centres unmarked) [Example 55, 1-(4-Methoxy-6-(pyridin-4-yl)quinazolin-2-yl)-3-methylbutan-1-amine]	97
CC(C)CCc1nc2ccc(-c3cnco3)cc2c(=S)[nH]1 [Example 56, 2-Isopentyl-6-(oxazol-5-yl)quinazoline-4(3H)-thione]	5
CCc1nc(CCC(C)C)nc2ccc(-c3cnco3)cc12 [Example 57, 5-(4-Ethyl-2-isopentylquinazolin-6-yl)oxazole]	1860
COc1cc2nc(CCC(C)C)[nH]c(=O)c2cc1-c1cnco1 [Example 58, 2-Isopentyl-7-methoxy-6-(oxazol-5-yl)quinazolin-4(3H)-one]	20
CC(C)CCc1nc(C(=O)N(C)C)c2cc(-c3ccncc3)ccc2n1 [Example 59, 2-Isopentyl-N,N-dimethyl-6-(pyridin-4-yl)quinazoline-4-carboxamide]	2670
CC(C)CCc1nc(C#N)c2cc(-c3ccncc3)ccc2n1 [Example 60, 2-Isopentyl-6-(pyridin-4-yl)quinazoline-4-carbonitrile]	144
CC(C)CCC1=Nc2ccc(-c3ccncc3)cc2C(CO)N1 (centres unmarked) [Example 61, (2-Isopentyl-6-(pyridin-4-yl)-3,4-dihydroquinazolin-4-yl)methanol]	35
CCc1nc(C(N)CC(C)C)nc2ccc(-c3ccncc3)cc12 (centres unmarked) [Example 62, 1-(4-Ethyl-6-(pyridin-4-yl)quinazolin-2-yl)-3-methylbutan-1-amine]	37
CCc1nc(C(N)CC(C)C)nc2ccc(-c3cn[nH]c3)cc12 (centres unmarked) [Example 63, 1-(4-Ethyl-6-(1H-pyrazol-4-yl)quinazolin-2-yl)-3-methylbutan-1-amine]	28
CCc1nc(C(N)CC(C)C)nc2ccc(-c3ccncn3)cc12 (centres unmarked) [Example 64, 1-(4-Ethyl-6-(pyrimidin-4-yl)quinazolin-2-yl)-3-methylbutan-1-amine]	83
CCc1nc(C(C)CC(C)C)nc2ccc(-c3ccncc3)cc12 (centres unmarked) [Example 65, 4-Ethyl-2-(4-methylpentan-2-yl)-6-(pyridin-4-yl)quinazoline]	223
CCc1nc(C(C)CC(C)C)nc2ccc(-c3ccnc(NC(C)=O)c3)cc12 (centres unmarked) [Example 66, N-(4-(4-Ethyl-2-(4-methylpentan-2-yl)quinazolin-6-yl)pyridin-2-yl)acetamide]	258
